Test results: patent US8541460B2, “PDK-1/Akt signaling inhibitors” (The Ohio State University, priority 2003, dated 2013)

How the values were obtained:
[1] = system: NCI-H522; assay: NCI DTP cell line screen (SRB), Non-Small Cell Lung Cancer; format: cell-based, human
Procedure: (§1) Screening of compounds 70 and 71 against several cancer cell lines The human tumor cell lines of the cancer screening panel are grown in RPMI 1640 medium containing 5% fetal bovine serum and 2 mM L-glutamine. For a typical screening experiment, cells are inoculated into 96 well microtiter plates in 100 μL at plating densities ranging from 5,000 to 40,000 cells/well depending on the doubling time of individual cell lines. After cell inoculation, the microtiter plates are incubated at 37° C., 5% CO2, 95% air and 100% relative humidity for 24 h prior to addition of experimental drugs.
(§2) After 24 h, two plates of each cell line are fixed in situ with TCA, to represent a measurement of the cell population for each cell line at the time of drug addition (Tz). Experimental drugs are solubilized in dimethyl sulfoxide at 400-fold the desired final maximum test concentration and stored frozen prior to use. At the time of drug addition, an aliquot of frozen concentrate is thawed and diluted to twice the desired final maximum test concentration with complete medium containing 50 μg/ml gentamicin. Additional four, 10-fold or ½ log serial dilutions are made to provide a total of five drug concentrations plus control. Aliquots of 100 μl of these different drug dilutions are added to the appropriate microtiter wells already containing 100 μl of medium, resulting in the required final drug concentrations.
(§3) Following drug addition, the plates are incubated for an additional 48 h at 37° C., 5% CO2, 95% air, and 100% relative humidity. For adherent cells, the assay is terminated by the addition of cold TCA. Cells are fixed in situ by the gentle addition of 50 μl of cold 50% (w/v) TCA (final concentration, 10% TCA) and incubated for 60 minutes at 4° C. The supernatant is discarded, and the plates are washed five times with tap water and air dried. Sulforhodamine B (SRB) solution (100 μl) at 0.4% (w/v) in 1% acetic acid is added to each well, and plates are incubated for 10 minutes at room temperature. After staining, unbound dye is removed by washing five times with 1% acetic acid and the plates are air dried. Bound stain is subsequently solubilized with 10 mM trizma base, and the absorbance is read on an automated plate reader at a wavelength of 515 nm. For suspension cells, the methodology is the same except that the assay is terminated by fixing settled cells at the bottom of the wells by gently adding 50 μl of 80% TCA (final concentration, 16% TCA). Using the seven absorbance measurements [time zero, (Tz), control growth, (C), and test growth in the presence of drug at the five concentration levels (Ti)], the percentage growth is calculated at each of the drug concentrations levels. Percentage growth inhibition is calculated as: [(Ti−Tz)/(C−Tz)]×100 for concentrations for which Ti>/=Tz [(Ti−Tz)/Tz]×100 for concentrations for which Ti<Tz
(§4) Three dose response parameters are calculated for each experimental agent. […] The drug concentration resulting in total growth inhibition (TGI) is calculated from Ti=Tz. […] Values are calculated for each of these three parameters if the level of activity is reached; however, if the effect is not reached or is exceeded, the value for that parameter is expressed as greater or less than the maximum or minimum concentration tested.
(§5) The methods described were used to test compounds 70 and 71 on a panel of sixty cell lines under a screening service provided by the Developmental Therapeutics Program at the National Institutes of Health. Shown in FIG. 1C are 1, RPMI-8226 leukemia cells; 2; NCI-H322M non-small cell lung cancer cells; 3, HT29 colon cancer cells; 4, U251 CNS cancer cells; 5, SK-MEL-28 melanoma cancer cells; 6, SK-OV-3 ovarian cancer cells; 7, RXF 393 renal cancer cells; 8, PC-3 prostate cancer cells; 9, MDA-MB-231 breast cancer cells.

[2] = system: HCT-116; assay: NCI DTP cell line screen (SRB), Colon Cancer; format: cell-based
Procedure: as §1, §2, §3, §4, §5

[3] = system: KM12; assay: NCI DTP cell line screen (SRB), Colon Cancer; format: cell-based
Procedure: as §1, §2, §3, §4, §5

[4] = system: SW-620; assay: NCI DTP cell line screen (SRB), Colon Cancer; format: cell-based
Procedure: as §1, §2, §3, §4, §5

[5] = system: A498; assay: NCI DTP cell line screen (SRB), Renal Cancer; format: cell-based
Procedure: as §1, §2, §3, §4, §5

[6] = system: SN12C; assay: NCI DTP cell line screen (SRB), Renal Cancer; format: cell-based
Procedure: as §1, §2, §3, §4, §5

[7] = system: MDA-MB-231/ATCC; assay: NCI DTP cell line screen (SRB), Breast Cancer; format: cell-based
Procedure: as §1, §2, §3, §4, §5

[8] = system: T-47D; assay: NCI DTP cell line screen (SRB), Breast Cancer; format: cell-based
Procedure: as §1, §2, §3, §4, §5

[9] = read-out: LC50 (the source's name)

SMILES: N=C(N)Nc1ccc(-n2nc(C(F)(F)F)cc2-c2ccc3c(ccc4ccccc43)c2)cc1 [Compound 71, 4-[5-(2-Phenanthrenyl)-3-(trifluoromethyl)-1H-pyrazol-1-yl]-phenyl-guanidine]
- GI50 [1]: 1450 nM
- Mean Optical Densities ([1]; Log10 Concentration −4.0): 0.439
- Percent Growth ([1]; Log10 Concentration −4.0): −43%
- Mean Optical Densities ([1]; Log10 Concentration −5.0): 0.037
- Percent Growth ([1]; Log10 Concentration −5.0): −95%
- Mean Optical Densities ([1]; Log10 Concentration −6.0): 1.471
- Percent Growth ([1]; Log10 Concentration −6.0): 78%
- Mean Optical Densities ([1]; Log10 Concentration −7.0): 1.558
- Percent Growth ([1]; Log10 Concentration −7.0): 87%
- Mean Optical Densities ([1]; Log10 Concentration −8.0): 1.509
- Percent Growth ([1]; Log10 Concentration −8.0): 82%
- TGI ([1]; in M (unit assumed)): 2.82E−06
- GI50 [2]: 1290 nM
- TGI [2]: 2.55E−06
- Mean Optical Densities ([2]; Log10 Concentration −4.0): 0.058
- Percent Growth ([2]; Log10 Concentration −4.0): −49%
- Mean Optical Densities ([2]; Log10 Concentration −5.0): −0.022
- Percent Growth ([2]; Log10 Concentration −5.0): −100%
- Mean Optical Densities ([2]; Log10 Concentration −6.0): 0.525
- Percent Growth ([2]; Log10 Concentration −6.0): 68%
- Mean Optical Densities ([2]; Log10 Concentration −7.0): 0.633
- Percent Growth ([2]; Log10 Concentration −7.0): 86%
- Mean Optical Densities ([2]; Log10 Concentration −8.0): 0.607
- Percent Growth ([2]; Log10 Concentration −8.0): 82%
- GI50 [3]: 1590 nM
- TGI [3]: 2.97E−06
- Mean Optical Densities ([3]; Log10 Concentration −4.0): 0.307
- Percent Growth ([3]; Log10 Concentration −4.0): −43%
- Mean Optical Densities ([3]; Log10 Concentration −5.0): 0.013
- Percent Growth ([3]; Log10 Concentration −5.0): −98%
- Mean Optical Densities ([3]; Log10 Concentration −6.0): 1.777
- Percent Growth ([3]; Log10 Concentration −6.0): 87%
- Mean Optical Densities ([3]; Log10 Concentration −7.0): 1.832
- Percent Growth ([3]; Log10 Concentration −7.0): 91%
- Mean Optical Densities ([3]; Log10 Concentration −8.0): 1.867
- Percent Growth ([3]; Log10 Concentration −8.0): 94%
- GI50 [4]: 1750 nM
- TGI [4]: 3.13E−06
- Mean Optical Densities ([4]; Log10 Concentration −4.0): 0.015
- Percent Growth ([4]; Log10 Concentration −4.0): −92%
- Mean Optical Densities ([4]; Log10 Concentration −5.0): −0.048
- Percent Growth ([4]; Log10 Concentration −5.0): −100%
- Mean Optical Densities ([4]; Log10 Concentration −6.0): 1.060
- Percent Growth ([4]; Log10 Concentration −6.0): 98%
- Mean Optical Densities ([4]; Log10 Concentration −7.0): 0.993
- Percent Growth ([4]; Log10 Concentration −7.0): 91%
- Mean Optical Densities ([4]; Log10 Concentration −8.0): 0.923
- Percent Growth ([4]; Log10 Concentration −8.0): 83%
- GI50 [5]: 16.5 µM
- TGI [5]: 4.35E−05
- Mean Optical Densities ([5]; Log10 Concentration −4.0): 0.540
- Percent Growth ([5]; Log10 Concentration −4.0): −43%
- Mean Optical Densities ([5]; Log10 Concentration −5.0): 1.903
- Percent Growth ([5]; Log10 Concentration −5.0): 76%
- Mean Optical Densities ([5]; Log10 Concentration −6.0): 1.869
- Percent Growth ([5]; Log10 Concentration −6.0): 73%
- Mean Optical Densities ([5]; Log10 Concentration −7.0): 2.087
- Percent Growth ([5]; Log10 Concentration −7.0): 91%
- Mean Optical Densities ([5]; Log10 Concentration −8.0): 2.413
- Percent Growth ([5]; Log10 Concentration −8.0): 116%
- CC50 [5, 9]: > 100 µM
- GI50 [6]: 1570 nM
- TGI [6]: 2.91E−06
- Mean Optical Densities ([6]; Log10 Concentration −4.0): 0.224
- Percent Growth ([6]; Log10 Concentration −4.0): −62%
- Mean Optical Densities ([6]; Log10 Concentration −5.0): −0.014
- Percent Growth ([6]; Log10 Concentration −5.0): −100%
- Mean Optical Densities ([6]; Log10 Concentration −6.0): 1.045
- Percent Growth ([6]; Log10 Concentration −6.0): 87%
- Mean Optical Densities ([6]; Log10 Concentration −7.0): 0.998
- Percent Growth ([6]; Log10 Concentration −7.0): 78%
- Mean Optical Densities ([6]; Log10 Concentration −8.0): 1.050
- Percent Growth ([6]; Log10 Concentration −8.0): 88%
- TGI [7]: 1.66E−06
- Mean Optical Densities ([7]; Log10 Concentration −4.0): 0.389
- Percent Growth ([7]; Log10 Concentration −4.0): −39%
- Mean Optical Densities ([7]; Log10 Concentration −5.0): 0.015
- Percent Growth ([7]; Log10 Concentration −5.0): −98%
- Mean Optical Densities ([7]; Log10 Concentration −6.0): 0.709
- Percent Growth ([7]; Log10 Concentration −6.0): 27%
- Mean Optical Densities ([7]; Log10 Concentration −7.0): 0.830
- Percent Growth ([7]; Log10 Concentration −7.0): 78%
- Mean Optical Densities ([7]; Log10 Concentration −8.0): 0.756
- Percent Growth ([7]; Log10 Concentration −8.0): 47%
- GI50 [8]: < 10 nM
- TGI [8]: 1.98E−06
- Mean Optical Densities ([8]; Log10 Concentration −4.0): 0.198
- Percent Growth ([8]; Log10 Concentration −4.0): −53%
- Mean Optical Densities ([8]; Log10 Concentration −5.0): 0.100
- Percent Growth ([8]; Log10 Concentration −5.0): −76%
- Mean Optical Densities ([8]; Log10 Concentration −6.0): 0.529
- Percent Growth ([8]; Log10 Concentration −6.0): 32%
- Mean Optical Densities ([8]; Log10 Concentration −7.0): 0.578
- Percent Growth ([8]; Log10 Concentration −7.0): 47%
- Mean Optical Densities ([8]; Log10 Concentration −8.0): 0.541
- Percent Growth ([8]; Log10 Concentration −8.0): 36%
- CC50 [8, 9]: 5.72 µM
